# Measurements taken from PMC4281142, “Fomiroid A, a Novel Compound from the Mushroom Fomitopsis nigra, Inhibits NPC1L1-Mediated Cholesterol Uptake via a Mode of Action Distinct from That of Ezetimibe” (PLoS ONE, 2014).
# Assays:
# [1] = molecular target: T1, NPC1L1 (rNPC1L1) (Rattus norvegicus, UniProt Q6T3U3); assay: competitive radioligand binding, [3H]ezetimibe glucuronide, HEK293/rNPC1L1 membranes
# T1 construct: rat NPC1L1 (GenBank AY437867), membranes from stably expressing HEK293 cells
# [2] = molecular target: T1, NPC1L1 (rNPC1L1); assay: competitive radioligand binding, [3H]ezetimibe glucuronide, HEK293/rNPC1L1 membranes (two-site fit; low-affinity site […])
SMILES,IC50 [1] [nM],IC50 [2] [nM]
O=C1[C@H](CC[C@H](O)c2ccc(F)cc2)[C@@H](c2ccc(O)cc2)N1c1ccc(F)cc1 [ezetimibe],332 ± 4.2,
"CC(C)=CCCC(CO)C1CC(O)C2(C)C3=C(CCC12C)C1(C)CCC(=O)C(C)(C)C1CC3 (centres unmarked) [fomiroid A, 15, 21-dihydroxylanosta-8, 24-dien-3-one]",,4830 ± 200
